Test results as given in patent US8901038B2, “Biphenyl-substituted cyclic ketoenols” (Bayer CropScience AG, priority 2010, dated 2014).

Key:
Format in all cases: in vivo
Boophilus microplus = Boophilus microplus test (BOOPMI injection); settings: application rate 20 μg/animal; injection into the abdomen; after 7 days
Procedure: Boophilus microplus Test (BOOPMI Injection)
(§1) • Solvent: Dimethyl sulphoxide
To produce a suitable preparation of active compound, 10 mg of active compound are mixed with 0.5 ml of solvent and the concentrate is diluted with solvent to the desired concentration. The solution of active compound is injected into the abdomen (Boophilus microplus) and the animals are transferred into dishes and stored in a climatized room. The efficacy is monitored for deposition of fertile eggs.
After 7 days, the effect in % is determined. 100% means that none of the ticks has laid any fertile eggs.

[1] = test system: green peach aphid (Myzus persicae); test: Myzus test (MYZUPE spray treatment); settings: Chinese cabbage leaf discs sprayed, after 6 days
Procedure: Myzus Test (MYZUPE Spray Treatment)
• Solvents: 78 parts by weight of acetone • 1.5 parts by weight of dimethylformamide • Emulsifier: 0.5 part by weight of alkylaryl polyglycol ether
To produce a suitable preparation of active compound, 1 part by weight of active compound is mixed with the stated amounts of solvent and emulsifier, and the concentrate is diluted with emulsifier-containing water to the desired concentration. Discs of Chinese cabbage (Brassica pekinensis) which are infested by all stages of the green peach aphid (Myzus persicae) are sprayed with an active compound preparation of the desired concentration. After 6 days, the effect in % is determined. 100% means that all aphids have been killed; 0% means that none of the aphids have been killed.

[2] = test system: caterpillars of the armyworm (Spodoptera frugiperda); test: Spodoptera frugiperda test (SPODFR spray treatment); settings: application rate 500 g/ha; maize leaf discs sprayed; after 7 days
Procedure: Spodoptera frugiperda Test (SPODFR Spray Treatment)
(§2) • Solvents: 78.0 parts by weight of acetone • 1.5 parts by weight of dimethylformamide • Emulsifier: 0.5 part by weight of alkylaryl polyglycol ether
To produce a suitable preparation of active compound, 1 part by weight of active compound is mixed with the stated amounts of solvent and emulsifier, and the concentrate is diluted with emulsified water to the desired concentration. Discs of maize leaves (Zea mays) are sprayed with an active compound preparation of the desired concentration and, after drying, populated with caterpillars of the armyworm (Spodoptera frugiperda).
After 7 days, the effect in % is determined. 100% means that all caterpillars have been killed; 0% means that none of the caterpillars have been killed.

Lucilia cuprina larvae = test: Lucilia cuprina test (LUCICU); settings: application rate 100 ppm; treated horse meat; after 2 days
Procedure: Lucilia cuprina test (LUCICU)
as §1
To produce a suitable preparation of active compound, 10 mg of active compound are mixed with 0.5 ml of dimethyl sulphoxide and the concentrate is diluted with water to the desired concentration. Containers containing horse meat treated with the active compound preparation of the desired concentration are populated with about 20 Lucilia cuprina larvae.
After 2 days, the kill in % is determined. 100% means that all larvae have been killed; 0% means that none of the larvae have been killed.

[3] = test system: greenhouse red spider mite (Tetranychus urticae); test: Tetranychus test; OP-resistant (TETRUR spray treatment); settings: application rate 100 g/ha; bean leaf discs sprayed; after 6 days
Procedure: Tetranychus Test; OP-Resistant (TETRUR Spray Treatment)
as §2
To produce a suitable preparation of active compound, 1 part by weight of active compound is mixed with the stated amounts of solvent and emulsifier, and the concentrate is diluted with emulsifier-containing water to the desired concentration. Discs of bean leaves (Phaseolus vulgaris), which are infested by all stages of the greenhouse red spider mite (Tetranychus urticae) are sprayed with an active compound preparation of the desired concentration.
After 6 days, the effect in % is determined. 100% means that all spider mites have been killed; 0% means that none of the spider mites have been killed.

[4] = test system: larvae of the mustard beetle (Phaedon cochleariae); test: Phaedon test (PHAECO spray treatment); settings: application rate 500 g/ha; Chinese cabbage leaf discs sprayed; after 7 days
Procedure: Phaedon Test (PHAECO Spray Treatment)
as §2
To produce a suitable preparation of active compound, one part by weight of active compound is mixed with the stated amounts of solvents and emulsifier, and the concentrate is diluted with emulsifier-containing water to the desired concentration. […].
After 7 days, the effect in % is determined. 100% means that all beetle larvae have been killed; 0% means that none of the beetle larvae have been killed.

Row | SMILES | efficacy (deposition of fertile eggs) (Boophilus microplus) | efficacy (aphids killed) ([1]; application rate 500 g/ha) | efficacy (caterpillars killed) [2] | efficacy (kill of larvae) (Lucilia cuprina larvae) | efficacy (spider mites killed) [3] | efficacy (beetle larvae killed) [4] | efficacy (aphids killed) ([1]; application rate 100 g/ha)
1 | Cc1c(-c2ccc(F)cc2)ccc(Cl)c1C1=C(O)C2(CCOCC2)NC1=O [Example I-1-a-13] | 80% | 100% | 100% | 90% | 100% |  | 
2 | CCc1ccc(-c2ccc(Cl)cc2)c(CC)c1C1=C(O)C2(CCN(OC)CC2)NC1=O [Example I-1-a-24] |  |  |  |  | 100% |  | 
3 | CCc1ccc(-c2ccc(F)cc2)c(C)c1C1=C(O)C2(CCC(OC)CC2)NC1=O (stereo not drawn) [Example I-1-a-4] |  | 90% |  |  | 100% | 83% | 
4 | CCc1c(-c2ccc(Cl)cc2)ccc(C)c1C1=C(O)C2(CCC(OC)CC2)NC1=O (stereo not drawn) [Example I-1-a-16] |  | 100% | 100% |  | 90% |  | 
5 | CCc1ccc(-c2ccc(Cl)cc2)c(CC)c1C1=C(O)C2(CCOCC2)NC1=O [Example I-1-a-1] |  | 100% |  |  | 80% | 100% | 
6 | CCc1cc(C)c(-c2ccc(Cl)cc2)c(C)c1C1=C(O)C2(CCC(OC)CC2)NC1=O (stereo not drawn) [Example I-1-a-7] |  |  |  |  | 90% | 100% | 90%
7 | CCOC(=O)OC1=C(c2c(CC)ccc(-c3ccc(F)cc3)c2C)C(=O)NC12CCC(OC)CC2 (single isomer, unassigned) [Example I-1-c-3] |  | 100% |  |  | 90% |  | 
8 | CCc1ccc(-c2ccc(F)cc2)c(CC)c1C1=C(O)C2(CCC(OC)CC2)NC1=O (stereo not drawn) [Example I-1-a-18] |  | 100% |  |  | 100% |  | 
9 | CCc1ccc(-c2ccc(Cl)cc2)c(CC)c1C1=C(O)[C@]2(CC[C@@H](OC)CC2)OC1=O [Example I-2-a-2] |  | 90% |  |  |  |  | 
10 | CCc1ccc(-c2ccc(Cl)cc2)c(CC)c1C1=C(O)[C@]2(CC[C@H](OC)CC2)OC1=O [Example I-2-a-1] |  | 90% |  |  | 100% | 100% | 
11 | CCc1ccc(-c2ccc(Cl)cc2)c(CC)c1C1=C(O)C2(CCC(OC)CC2)NC1=O (stereo not drawn) [Example I-1-a-19] |  |  |  |  | 90% | 100% | 
12 | O=C1NC2(CCOCC2)C(O)=C1c1c(Cl)ccc(-c2ccc(F)cc2)c1Cl [Example I-1-a-6] | 90% | 100% |  |  | 100% |  | 
13 | CCc1ccc(-c2ccc(Cl)cc2)c(C)c1C1=C(O)C2(CCC(OC)CC2)OC1=O (single isomer, unassigned) [Example I-2-a-5] |  | 90% |  |  |  | 100% | 
14 | CCc1ccc(-c2ccc(Cl)cc2)c(C)c1C1=C(O)C2(CCC(OC)CC2)OC1=O (single isomer, unassigned) [Example I-2-a-6] |  | 100% |  |  | 100% | 100% | 
15 | CCc1c(-c2ccc(F)cc2)ccc(C)c1C1=C(OC(=O)C(C)C)C2(CCC(OC)CC2)NC1=O (stereo not drawn) [Example I-1-b-2] |  | 90% |  |  |  |  | 
16 | CCc1ccc(-c2ccc(F)cc2)c(C)c1C1=C(O)C2(CCOCC2)NC1=O [Example I-1-a-5] |  | 100% |  |  | 90% |  | 
17 | CCc1ccc(-c2ccc(Cl)cc2)c(CC)c1C1=C(OC(=O)C(C)C)C2(CCOCC2)NC1=O [Example I-1-b-1] |  |  | 83% |  | 80% |  | 

Row | SMILES | efficacy (deposition of fertile eggs) (Boophilus microplus) | efficacy (aphids killed) ([1]; application rate 500 g/ha) | efficacy (caterpillars killed) [2] | efficacy (kill of larvae) (Lucilia cuprina larvae) | efficacy (spider mites killed) [3] | efficacy (beetle larvae killed) [4] | efficacy (aphids killed) ([1]; application rate 100 g/ha)
18 | CCOC(=O)OC1=C(c2c(CC)ccc(-c3ccc(Cl)cc3)c2C)C(=O)NC12CCC(OC)CC2 (stereo not drawn) [Example I-1-c-2] |  | 100% |  |  | 100% |  | 
19 | CCc1ccc(-c2ccc(Cl)cc2)c(C)c1C1=C(OC(=O)C(C)C)C2(CCC(OC)CC2)NC1=O (stereo not drawn) [Example I-1-b-4] |  | 100% | 100% |  | 90% |  | 
20 | CCc1ccc(-c2ccc(Cl)cc2)c(C)c1C1=C(O)C2(CCOCC2)NC1=O [Example I-1-a-3] | 80% | 100% | 80% |  | 90% | 100% | 
21 | CCc1ccc(-c2ccc(Cl)cc2)c(C)c1C1=C(O)C2(CCC(OC)CC2)NC1=O (stereo not drawn) [Example I-1-a-21] |  | 100% |  |  | 100% |  | 
22 | O=C1NC2(CCOCC2)C(O)=C1c1c(Cl)ccc(-c2ccc(Cl)cc2)c1Cl [Example I-1-a-2] | 95% | 100% | 100% | 100% |  |  | 
23 | CCc1cc(C)c(-c2ccc(Cl)cc2)c(C)c1C1=C(O)C2(CCOCC2)NC1=O [Example I-1-a-8] |  | 100% |  |  | 90% | 100% | 
24 | CCc1c(-c2ccc(F)cc2)ccc(C)c1C1=C(O)C2(CCOCC2)NC1=O [Example I-1-a-10] | 80% | 100% |  | 90% | 100% |  | 
25 | CCON1CCC2(CC1)NC(=O)C(c1c(CC)ccc(-c3ccc(Cl)cc3)c1C)=C2O [Example I-1-a-22] |  | 100% |  |  | 90% | 100% | 
26 | CCOC(=O)OC1=C(c2c(CC)ccc(-c3ccc(Cl)cc3)c2CC)C(=O)NC12CCOCC2 [Example I-1-c-1] |  | 90% |  |  |  |  | 
27 | CCc1ccc(-c2ccc(Cl)cc2)c(C)c1C1=C(O)C2(CCN(OC)CC2)NC1=O [Example I-1-a-23] |  | 100% |  |  | 90% | 100% | 
28 | CCc1c(-c2ccc(Cl)cc2)ccc(C)c1C1=C(O)C2(CCOCC2)NC1=O [Example I-1-a-17] |  | 100% |  |  | 100% |  | 
29 | CCc1ccc(-c2ccc(Cl)cc2)c(C)c1C1=C(O)C2(CCOCC2)OC1=O [Example I-2-a-7] |  | 100% | 100% |  | 100% |  | 
30 | CCc1ccc(-c2ccc(F)cc2)c(CC)c1C1=C(O)C2(CCOCC2)NC1=O [Example I-1-a-20] |  | 100% |  |  | 100% |  | 
31 | Cc1c(-c2ccc(Cl)cc2)ccc(Cl)c1C1=C(O)C2(CCOCC2)NC1=O [Example I-1-a-15] |  | 100% | 83% | 100% | 90% |  | 
32 | CCc1ccc(-c2ccc(Cl)cc2)c(CC)c1C1=C(O)C2(CCOCC2)OC1=O [Example I-2-a-3] |  | 90% |  |  | 100% |  | 
33 | CCc1ccc(-c2ccc(F)cc2)c(C)c1C1=C(OC(=O)C(C)C)C2(CCC(OC)CC2)NC1=O (stereo not drawn) [Example I-1-b-3] |  | 90% |  |  | 100% |  | 
34 | CCc1c(-c2ccc(F)cc2)ccc(C)c1C1=C(O)C2(CCC(OC)CC2)NC1=O (stereo not drawn) [Example I-1-a-9] | 100% | 90% |  |  | 70% | 83% | 
